Results reported in patent US10266493B2, “Thioacetate compounds, compositions and methods of use” (Ardea Biosciences, Inc., priority 2010, dated 2019).

Target: URAT1 (Homo sapiens, UniProt Q96S37)
Test: URAT1-model assay: 14C-uric acid transport in HEK293/URAT1-model cells
Type: cell-based
Details: HEK293 cells transfected with model URAT1 construct; 14C-uric acid uptake, 10 minutes at room temperature; read-out: URAT1 EC50 Activity Ranking
Description: Transfections of HEK293 cells with a model URAT1 construct was performed using L2000 transfection reagent (Invitrogen) as described by the manufacturer. After 24 h the transfected cells were split into 10 cm tissue culture plates and grown for 1 day after which the medium was replaced with fresh growth medium containing G418 (Gibco) at 0.5 mg/ml final concentration. Drug-resistant colonies were selected after approximately 8 days and then tested for ^14C-uric acid transport activity. The HEK293/URAT1-model cells are plated on Poly-D-Lysine Coated 96-well Plates at a density of 125,000 cells per well.
Cells were grown overnight (20-26 hours) at 37° C. in an incubator. […] Plates were incubated at room temperature for 10 minutes then washed 3 times with 50 μl Wash Buffer and 3 times with 250 μl Wash Buffer. Microscint 20 Scintillation Fluid was added and plates were incubated overnight at room temperature to equilibrate. Plates are then read on the TopCount Plate Reader and an EC50 value generated.

Chain of URAT1 (Q96S37 whole entry, looked up): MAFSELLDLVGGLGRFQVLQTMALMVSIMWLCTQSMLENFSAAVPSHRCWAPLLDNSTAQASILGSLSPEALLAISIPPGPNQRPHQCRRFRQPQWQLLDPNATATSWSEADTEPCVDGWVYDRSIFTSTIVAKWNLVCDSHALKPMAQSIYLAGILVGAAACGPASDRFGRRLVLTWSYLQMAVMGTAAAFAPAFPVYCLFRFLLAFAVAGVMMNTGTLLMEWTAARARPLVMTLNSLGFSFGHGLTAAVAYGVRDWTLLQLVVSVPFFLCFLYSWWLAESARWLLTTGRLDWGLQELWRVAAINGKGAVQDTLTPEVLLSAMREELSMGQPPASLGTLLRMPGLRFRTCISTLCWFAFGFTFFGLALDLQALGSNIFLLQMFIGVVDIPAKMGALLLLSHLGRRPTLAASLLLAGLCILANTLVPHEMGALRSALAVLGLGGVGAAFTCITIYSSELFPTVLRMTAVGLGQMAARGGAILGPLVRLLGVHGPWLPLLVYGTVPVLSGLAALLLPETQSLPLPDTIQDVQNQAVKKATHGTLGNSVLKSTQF

EC50, 0.5 to 10 µM:
COc1ncc(-c2cnccc2SC(C)(C)C(=O)O)cn1 [Example 2HH]
N#Cc1ccc(-c2cnccc2SCC(=O)O)c2ccccc12 [Example 2B]
CC(C)(Sc1ccncc1-c1cccnc1)C(=O)O [Example 2M]
CC(C)(Sc1ccncc1-c1ccc2c(c1)OCCO2)C(=O)O [Example 2I]
CC(C)(Sc1ncncc1-c1ccc(C#N)c2ccccc12)C(=O)O [Example 6B, 2-(5-(4-cyanonaphthalen-1-yl)pyrimidin-4-ylthio)-2-methylpropanoic Acid]
CC(C)(Sc1ccncc1-c1cccc2cnccc12)C(=O)O [Example 2L]
CC(C)(Sc1ccncc1-c1ccccc1)C(=O)O [Example 2R]
CN(C)c1ccc(-c2cnccc2SC(C)(C)C(=O)O)cc1 [Example 2OO]
CC(C)(Sc1ccncc1-c1ccc(CC#N)cc1)C(=O)O [Example 2RR]
CC(C)(Sc1ccncc1-c1ccc2c(c1)OCO2)C(=O)O [Example 2E]
CC(C)(Sc1ccncc1-c1ccc2ccccc2c1)C(=O)O [Example 2Z]
CCOc1ccc2cc(-c3cnccc3SC(C)(C)C(=O)O)ccc2c1 [Example 2Y]
N#Cc1ccc(-c2cnccc2SC(F)(F)C(=O)O)c2ccccc12 [Example 2FF]
CC(C)(Sc1ccncc1-c1ccc(N)cc1)C(=O)O [Example 2YY]
N#Cc1ccc(-c2cccnc2SCC(=O)O)c2ccccc12 [Example 4B]
Cc1ccc(-c2cnccc2SC(C)(C)C(=O)O)cn1 [Example 2LL]
COc1ccc2cc(-c3cnccc3SC(C)(C)C(=O)O)ccc2c1 [Example 2V]
CC(C)(Sc1ccncc1-c1ccc(CC(N)=O)cc1)C(=O)O [Example 2SS]
CC(C)(Sc1ccncc1-c1cc2ccccc2[nH]1)C(=O)O [Example 2G]
Cn1cc(-c2cnccc2SC(C)(C)C(=O)O)cn1 [Example 2QQ]
CC(C)(Sc1ccncc1-c1ccc(C(=O)O)cc1F)C(=O)O [Example 2HHH]
